# Measurements reported in patent US20060069132A1, “Azolecarboxamide herbicides” (priority 2004, published 2006).
# Like-named read-outs stand apart in the source and are kept apart here.
# Legend:
# [1] = test system: velvetleaf; experiment: Test B pre-/postemergence herbicide test; type: in vivo, Abutilon theophrasti; conditions: Abutilon theophrasti, 336 h; for pest or weed control at 125 g/ha: 125 g ai/ha; for pest or weed control at 500 g/ha: 500 g ai/ha
# Summary of the method: (§1)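 Seeds were planted and treated preemergence with compounds formulated in a non-phytotoxic solvent mixture containing surfactant, while plants at the 1- to 4-leaf stage (2 to 18 cm) received postemergence sprays. Flooded paddy plants were grown to the 2-leaf stage. After 13 to 15 days in a greenhouse, injury was visually rated 0–100 against untreated controls.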
# [2] = test system: large crabgrass; experiment: Test B pre-/postemergence herbicide test; type: in vivo, Digitaria sanguinalis; conditions: Digitaria sanguinalis; for pest or weed control at 125 g/ha: 125 g ai/ha; for pest or weed control at 500 g/ha: 500 g ai/ha
# Summary of the method: as §1
# [3] = test system: wheat; experiment: Test B postemergence herbicide test; type: in vivo, Triticum aestivum; conditions: Triticum aestivum, post-emergence, 336 h, postemergence, 500 g ai/ha; visual rating, scale 0 (no effect) to 100 (complete control); read-out: Wheat plant response rating
# Summary of the method: (§2)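 Visual ratings, 0 (no effect) to 100 (complete control), made versus controls after 13–15 d greenhouse. Paddy plants treated at 2-leaf stage; postemergence plants at 1- to 4-leaf stage, 2–18 cm tall.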
# [4] = test system: lambsquarters; experiment: Test B pre-/postemergence herbicide test; type: in vivo, Chenopodium album; conditions: Chenopodium album, 336 h; for pest or weed control at 125 g/ha: 125 g ai/ha; for pest or weed control at 500 g/ha: 500 g ai/ha
# Summary of the method: as §1
# [5] = test system: ducksalad; experiment: Test B flooded paddy test; type: in vivo, Heteranthera limosa; conditions: Heteranthera limosa, 336 h, 1000 g ai/ha, visual rating, scale 0 to 100 (0 no effect, 100 complete control), 13 to 15 days, read-out: Ducksalad plant response rating
# Summary of the method: (§3)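 Treated at 2-leaf (paddy) or 1–4-leaf, 2–18 cm (postemergence); greenhouse 13–15 d; visual score vs control, 0 none to 100 complete control; dash = not tested.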
# [6] = test system: morningglory; experiment: Test B pre-/postemergence herbicide test; type: in vivo, Ipomoea coccinea; conditions: Ipomoea, 336 h; for pest or weed control at 125 g/ha: 125 g ai/ha; for pest or weed control at 500 g/ha: 500 g ai/ha
# Summary of the method: (§4)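 Herbicidal effect was judged by eye on a 0–100 scale after plants stood 13 to 15 days in the greenhouse following pre- or postemergence treatment with surfactant-containing formulations.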
# [7] = test system: rice; experiment: Test B flooded paddy test; type: in vivo, Oryza sativa; conditions: Oryza sativa, 336 h, 1000 g ai/ha, visual rating, scale 0 to 100 (0 no effect, 100 complete control), 13 to 15 days, read-out: Rice plant response rating
# Summary of the method: as §2
# [8] = test system: Surinam grass; experiment: Test B pre-/postemergence herbicide test; type: in vivo, Urochloa decumbens; conditions: Urochloa decumbens; for pest or weed control at 125 g/ha: 125 g ai/ha; for pest or weed control at 500 g/ha: 500 g ai/ha
# Summary of the method: as §1
# [9] = test system: pigweed; experiment: Test B pre-/postemergence herbicide test; type: in vivo, Amaranthus retroflexus; conditions: Amaranthus retroflexus, 336 h; for pest or weed control at 125 g/ha: 125 g ai/ha; for pest or weed control at 500 g/ha: 500 g ai/ha
# Summary of the method: as §1
# [10] = test system: barnyardgrass; experiment: Test B pre-/postemergence herbicide test; type: in vivo, Echinochloa crus-galli; conditions: Echinochloa crus-galli; for pest or weed control at 125 g/ha: 125 g ai/ha; for pest or weed control at 500 g/ha: 500 g ai/ha
# Summary of the method: as §4
# [11] = test system: giant foxtail; experiment: Test B pre-/postemergence herbicide test; type: in vivo, Setaria faberi; conditions: Setaria faberi, 336 h; for pest or weed control at 125 g/ha: 125 g ai/ha; for pest or weed control at 500 g/ha: 500 g ai/ha
# Summary of the method: as §1
# [12] = test system: wild oat; experiment: Test B postemergence herbicide test; type: in vivo, Avena fatua; conditions: Avena fatua, post-emergence, 336 h, postemergence, visual rating, scale 0 (no effect) to 100 (complete control), read-out: Oat, Wild plant response rating
# Summary of the method: as §2
# [13] = test system: cocklebur; experiment: Test B pre-/postemergence herbicide test; type: in vivo, Xanthium strumarium; conditions: Xanthium strumarium; for pest or weed control at 125 g/ha: 125 g ai/ha; for pest or weed control at 500 g/ha: 500 g ai/ha
# Summary of the method: as §4
# [14] = test system: small flower umbrella sedge; experiment: Test B flooded paddy test; type: in vivo, Cyperus difformis; conditions: Cyperus difformis, 336 h, 1000 g ai/ha, visual rating, scale 0 to 100 (0 no effect, 100 complete control), 13 to 15 days, read-out: Sedge, Umbrella plant response rating
# Summary of the method: as §3
# [15] = test system: barnyardgrass; experiment: Test B flooded paddy test; type: in vivo, Echinochloa crus-galli; conditions: Echinochloa crus-galli, 336 h, 1000 g ai/ha, visual rating, scale 0 to 100 (0 no effect, 100 complete control), 13 to 15 days, read-out: Barnyardgrass plant response rating
# Summary of the method: as §3
# [16] = post-emergence, postemergence, visual rating, scale 0 (no effect) to 100 (complete control), read-out: Velvetleaf plant response rating
# [17] = post-emergence, postemergence, visual rating, scale 0 (no effect) to 100 (complete control), read-out: Crabgrass, Large plant response rating
# [18] = post-emergence, postemergence, visual rating, scale 0 (no effect) to 100 (complete control), read-out: Lambsquarters plant response rating
# [19] = post-emergence, postemergence, visual rating, scale 0 (no effect) to 100 (complete control), read-out: Morningglory plant response rating
# [20] = post-emergence, postemergence, visual rating, scale 0 (no effect) to 100 (complete control), read-out: Surinam Grass plant response rating
# [21] = post-emergence, postemergence, visual rating, scale 0 (no effect) to 100 (complete control), read-out: Pigweed plant response rating
# [22] = post-emergence, postemergence, visual rating, scale 0 (no effect) to 100 (complete control), read-out: Barnyardgrass plant response rating
# [23] = post-emergence, postemergence, visual rating, scale 0 (no effect) to 100 (complete control), read-out: Foxtail, Giant plant response rating
# [24] = post-emergence, postemergence, visual rating, scale 0 (no effect) to 100 (complete control), read-out: Cocklebur plant response rating
smiles,measurement,setting,value
"CCn1nc(C(C)(C)C)cc1C(=O)Nc1cc(C(=O)OC)ccn1 [Compound 151, methyl 2-[[[3-(1,1-dimethylethyl)-1-ethyl-1H-pyrazol-5-yl]carbonyl]amino]-4-pyridinecarboxylate]",pest or weed control at 125 g/ha,[1]; [16],10%
same,pest or weed control at 500 g/ha,[1]; [16],20%
same,pest or weed control at 500 g/ha,"[1]; pre-emergence, visual rating 0-100, 0 no effect, 100 complete control, read-out: Plant response rating, Velvetleaf",0%
same,pest or weed control at 125 g/ha,"[1]; pre-emergence, preemergence, 0 to 100 scale, 0 is no effect, 100 is complete control, read-out: Plant response rating, Velvetleaf",0%
same,pest or weed control at 125 g/ha,[2]; [17],0%
same,pest or weed control at 500 g/ha,[2]; [17],0%
same,pest or weed control at 500 g/ha,"[2]; pre-emergence, visual rating 0-100, 0 no effect, 100 complete control, read-out: Plant response rating, Crabgrass, Large",10%
same,pest or weed control at 125 g/ha,"[2]; pre-emergence, preemergence, 0 to 100 scale, 0 is no effect, 100 is complete control, read-out: Plant response rating, Crabgrass, Large",0%
same,plant injury at 500 g/ha,[3],20%
same,pest or weed control at 125 g/ha,[4]; [18],0%
same,pest or weed control at 500 g/ha,[4]; [18],50%
same,pest or weed control at 500 g/ha,"[4]; pre-emergence, visual rating 0-100, 0 no effect, 100 complete control, read-out: Plant response rating, Lambsquarters",0%
same,pest or weed control at 125 g/ha,"[4]; pre-emergence, preemergence, 0 to 100 scale, 0 is no effect, 100 is complete control, read-out: Plant response rating, Lambsquarters",0%
same,pest or weed control at 1000 g/ha,[5],0%
same,pest or weed control at 125 g/ha,[6]; [19],10%
same,pest or weed control at 500 g/ha,[6]; [19],30%
same,pest or weed control at 500 g/ha,"[6]; pre-emergence, visual rating 0-100, 0 no effect, 100 complete control, read-out: Plant response rating, Morningglory",0%
same,pest or weed control at 125 g/ha,"[6]; pre-emergence, preemergence, 0 to 100 scale, 0 is no effect, 100 is complete control, read-out: Plant response rating, Morningglory",0%
same,plant injury at 1000 g/ha,[7],0%
same,pest or weed control at 125 g/ha,[8]; [20],10%
same,pest or weed control at 500 g/ha,[8]; [20],10%
same,pest or weed control at 500 g/ha,"[8]; pre-emergence, visual rating 0-100, 0 no effect, 100 complete control, read-out: Plant response rating, Surinam Grass",10%
same,pest or weed control at 125 g/ha,"[8]; pre-emergence, preemergence, 0 to 100 scale, 0 is no effect, 100 is complete control, read-out: Plant response rating, Surinam Grass",0%
same,pest or weed control at 125 g/ha,[9]; [21],10%
same,pest or weed control at 500 g/ha,[9]; [21],30%
same,pest or weed control at 500 g/ha,"[9]; pre-emergence, visual rating 0-100, 0 no effect, 100 complete control, read-out: Plant response rating, Pigweed",0%
same,pest or weed control at 125 g/ha,"[9]; pre-emergence, preemergence, 0 to 100 scale, 0 is no effect, 100 is complete control, read-out: Plant response rating, Pigweed",0%
same,pest or weed control at 125 g/ha,[10]; [22],0%
same,pest or weed control at 500 g/ha,[10]; [22],10%
same,pest or weed control at 500 g/ha,"[10]; pre-emergence, visual rating 0-100, 0 no effect, 100 complete control, read-out: Plant response rating, Barnyardgrass",10%
same,pest or weed control at 125 g/ha,"[10]; pre-emergence, preemergence, 0 to 100 scale, 0 is no effect, 100 is complete control, read-out: Plant response rating, Barnyardgrass",0%
same,pest or weed control at 125 g/ha,[11]; [23],10%
same,pest or weed control at 500 g/ha,[11]; [23],20%
same,pest or weed control at 500 g/ha,"[11]; pre-emergence, visual rating 0-100, 0 no effect, 100 complete control, read-out: Plant response rating, Foxtail, Giant",10%
same,pest or weed control at 125 g/ha,"[11]; pre-emergence, preemergence, 0 to 100 scale, 0 is no effect, 100 is complete control, read-out: Plant response rating, Foxtail, Giant",0%
same,pest or weed control at 125 g/ha,[12]; 125 g ai/ha,10%
same,pest or weed control at 500 g/ha,[12]; 500 g ai/ha,30%
same,pest or weed control at 125 g/ha,[13]; [24],0%
same,pest or weed control at 500 g/ha,[13]; [24],0%
same,pest or weed control at 500 g/ha,"[13]; pre-emergence, visual rating 0-100, 0 no effect, 100 complete control, read-out: Plant response rating, Cocklebur",0%
same,pest or weed control at 125 g/ha,"[13]; pre-emergence, preemergence, 0 to 100 scale, 0 is no effect, 100 is complete control, read-out: Plant response rating, Cocklebur",0%
same,pest or weed control at 1000 g/ha,[14],60%
same,pest or weed control at 1000 g/ha,[15],0%
